Earlier results on one molecule are cited in US8822870B2, “Dielectric insulation medium” (ABB Technology Ltd., priority 2010, dated 2014).

On to `O=C(C(F)(F)C(F)(F)F)C(F)(C(F)(F)F)C(F)(F)F` [C6-ketone, 1,1,1,2,4,4,5,5,5-Nonafluoro-2-(trifluoromethyl)pentan-3-one], for which the “LC50 4 hours” value is reported as “about 100,000 ppm”.
